According to patent publication US20120201981A1, “COMBINATIONS OF BIOLOGICAL CONTROL AGENTS WITH A NEMATICIDAL SEED COATING” (priority 2006, published 2012):

Experiments:
M. incognita race 1 = assay: Tomato miniplot field trial; format: in vivo, Meloidogyne incognita; conditions: P. chlamydosporia 4000 chlamydospores/cm^3 substrate
Method: Nine miniplots (3 m diameter, 12 cm deep) were each filled with approximately 350000-cm^3 field soil (sandy loam, pH 7.2) obtained from an adjacent field with no significant infestation of plant-parasitic nematodes. Tomato seedlings (Lycopersicum esculentum cv. Tiny Tim) were raised from abamectin-treated seed (0.3 mg a.i./seed) or from Apron/Maxim-treated seed. They were seeded in seedling trays with commercial transplant substrate (Sunshine mix). The substrate was either non-amended or amended with P. chlamydosporia (4000 chlamydospores/cm^3 substrate). After 3 weeks in a greenhouse, the seedlings were transplanted into the 9 miniplots. Each plot was a randomized block with 4 treatments and three plants per treatment. Each planting area was infested by distributing 10,000 eggs of M. incognita race 1 into three 5 cm deep holes approximately 5 cm from each transplant. The plots were irrigated via low-pressure irrigation and fertilized according to local standard. After approximately 10 weeks the plants set fruit and were harvested three times during the following 3 weeks. Number of fruits and weight were taken. All data were subject to ANOVA and mean separation with Fisher's LSD (P=0.05).

[1] = system: root-knot nematodes, Meloidogyne incognita race 1; assay: Tomato green house trials (data of two trials combined); format: in vivo; conditions: for J2/50 ml soil / Plant dry weight(g) / Plant height(cm) / egg count/root / egg masses/root / Root galling / fruit weight (g) / number of fruits/plant / total fruit weight/plant (g): tomato, rkn, mean ± SE; for J2/50 ml soil / Plant dry weight(g) / Plant height(cm) / egg count/root / egg masses/root / Root galling: trial termination; for Root galling: scale from 0-10; for fruit weight (g): average fruit weight
Method: The greenhouse trials were conducted in pulp pots (10-cm diameter) filled with steam-pasteurized sand (250 cm^3). The biological control organism (BCO) P. chlamydosporia was grown as described above. P. chlamydosporium-inoculated millet seed were washed (1:2 weight/volume millet seed and sterile distilled water, 2 min shaking in electric blender) and passed through a 100-mesh sieve to remove the millet from the fungal chlamydospores. These served as the inoculum and were counted with a counting chamber (Fuchs-Rosenthal). The chlamydospores were thoroughly mixed with the sand. Population density of fungus was approximately 2000 chlamydospores/g soil for rate 1 and 4000 chlamydospores/g soil for rate 2 (Table 1). Tomato seeds (Lycopersicum esculentum cv. Tiny Tim) were coated with either 0.1 mg or 0.3 mg abamectin/seed or received no further treatment (Table 1). The tomato seeds were sown into seeding trays with commercial seedling substrate and after 2 weeks the plants were transplanted into 10-cm pulp pots. With the exception of the first treatment, each pot was infested with ca. 30000 eggs of M. incognita. Egg hatch rate was approximately 10% on Baerman funnels at 26° C. for 5 days. Each pot received slow release fertilizer (Osmocote Vegetable and Bedding Plant food, 14-14-14, The Scotts Company). Pots were arranged in a randomized complete block design with 6 replications per treatment and incubated in greenhouse at ca. 24±3C and ambient lighting. Plants were watered daily as needed. Plant height was determined and the shoots were cut off at the end of the trial. Shoots be placed in a drying oven at 69° C. for 72 h and the weight of each plant was determined. The extent of root galling was assessed on a scale from 0-10 (Zeck, 1971, supra).
Nematode populations were determined by counting egg masses (=number of fecundate females), eggs and second-stage juvenile (J2). The roots were placed in eryoglaucin solution overnight to stain egg masses of the root-knot nematodes which enabled their enumeration (Omwega et al., 1988). The eggs were released from egg masses through a modified bleach/sieving extraction technique (Hussey and Barker, 1973). Each week, ripe (red) tomato fruits were picked off, and the number and weight were recorded. Picking was continued until fruit production seized. The trial was repeated once. All data were subject to analysis of variation with SuperANOVA (Abacus Concepts, 1989, Berkeley, Calif.). If appropriate, Fisher's Protected Least Significant Difference (LSD) was used to separate means at P=0.05.

[2] = system: root-knot nematodes, Meloidogyne incognita race 1; assay: Cucumber green house trial, cucumber seed coating trial 1; format: in vivo; conditions: for main vine length (cm) @ 8 weeks / number egg masses/root / plant dry weight (g) @ 8 weeks / plant height (mm) @ 3 weeks / root galling @ 8 weeks: cucumber, rkn, mean ± SE; for root galling @ 8 weeks: scale 0-10 (0=no galling)
Method: (§1) Pots (10-cm diameter) were filled with 250 g (dry weight) steam-pasteurized river bottom sand. Ten treatments with 6 replications were prepared (Table 1). The fungal antagonist Pochonia chlamydosporia was grown on autoclaved moist millet seed for three weeks at 22° C. Colonized millet was dried in a laminar flow hood, and stored aseptically at 4° C. until use. For soil inoculation, P. chlamydosporia-colonized millet was thoroughly mixed with the sand. Population density of the fungus was approximately 2000 chlamydospores/cc soil for rate 1 and 4000 chlamydospores/cc soil for rate 2.
(§2) The nematode inoculum was raised during the previous 3 months on tomato plants (Lycopersicum esculentum cv. Tropic) in the greenhouse. Nematode eggs were obtained by standard bleach/sieving extraction. With the exception of the first treatment, each pot was infested with ca. 30000 eggs of M. incognita. This is a typical infestation level for nematicide tests resulting in high disease pressure (expected gall rating for non-treated control at 8 weeks was approximately 7 on a scale of 0-10 (Zeck, Pflanzenschutz-Nachrichten, Bayer AG, 24:141-144, 1971). Cucumber seeds (Cucumis sativus L. cv. Straight Eight, Burpee Seed Co.) were coated with either0.1 mg or 0.3 mg abamectin/seed or received no further treatment. Each pot received slow-release fertilizer (Osmocote Vegetable and Bedding Plant Food, 14-14-14, The Scotts Company) recommended for tomato production. The pots were arranged in a randomized complete block design in a greenhouse at ca. 24°±3° C. and ambient lighting. Irrigation was applied daily as needed. Three and eight weeks after seeding plant height or main vine length was determined. Eight weeks after seeding the trial was terminated and the plant tops were cut off. They were placed in a drying oven overnight and their weight was determined. The roots were placed in eryoglaucin solution overnight and the stained egg masses of the root-knot nematodes were counted. Root galling was rated on a scale of 0-10 (0=no galling). The trial was repeated once.

[3] = system: Meloidogyne incognita race 3; assay: Root-knot nematode trial on tomato, abamectin seed coating with soil application of Pasteuria penetrans
Method: Abamectin coated (0.3 mg a.i./seed) and non-treated tomato seed (cv. Kirby) was provided by Syngenta Crop Protection. The treatments were seeded in individual seedling trays. After 3 weeks incubation in a greenhouse at 25°±2° C., the seedlings were transplanted into 1500 cm^3 pots containing the test soil. The soil was collected from a field at the UC South Coast Research and Extension Center at Irvine (San Emigdio sandy loam, 12.5% sand, 12% clay, 75.4% silt, 0.45 OM, pH 7.4). To improve soil aeration and irrigation water drainage, ⅔ of the soil was mixed with ⅓ (v/v) plaster sand. The soil was pasteurized and infested with root-knot nematodes. Meloidogyne incognita race 3 inoculum was reared on tomato cv. UC 82 for ca. three months in greenhouse cultures. Nematode eggs were harvested from the root systems by a modification of a bleach/sieving method (Hussey and Barker, Plant Disease Reporter, 57:1025-1028 (1973)) and used to infested the test soil with 1000 eggs of M. incognita race 3 per 100 cm^3. Pasteuria penetrans was obtained from the University of California Riverside Nematology culture collection. The inoculum was reared on root-knot nematode-infested tomato plants. In the Pasteuria treatments, the soil was amended with approximately 1×10^5 endospores/g soil. The trial was arranged as a complete randomized block with 6 replications and incubated in a greenhouse at 26°±2° C. with ambient light. All pots were fertilized with Osmocote 14-14-14 (label rate for tomato production). Irrigation was applied as needed. Two months after transplanting, plant tops were cut off at the soil level, oven dried and weighted. Roots were rated for galling on a scale of 0-10 (Zeck, Bayer AG, Pflanzenschutz-Nachrichten, 24:141-144 (1971)).

[4] = system: root-knot nematodes, Meloidogyne incognita race 1; assay: Cucumber green house trial, cucumber seed coating trial 2; format: in vivo; conditions: rkn, mean ± SE
Method: as §1, §2

[5] = tomato miniplots, 10,000 eggs per planting area, mean ± SE, abamectin 0.3 mg/seed
[6] = abamectin seed coating 0.1 mg/seed
[7] = abamectin seed coating 0.3 mg/seed
[8] = tomato cv. Kirby, two months after transplanting, mean ± SE, abamectin seed coated 0.3 mg a.i./seed, P. penetrans soil incorporated 1 × 10E5/g soil

abamectin
yield (in words) (M. incognita race 1; tomato miniplot field trial, abamectin 0.3 mg a.i./seed): increased the yield significantly | M. incognita eggs/plant (M. incognita race 1; [5]): 171,400 ± 37,100 a | number fruits/plant (M. incognita race 1; [5]): 69.0 ± 3.2 b | root galling at harvest (M. incognita race 1; [5]): 4.5 ± 0.2 c | total fruit weight/plant (M. incognita race 1; [5]): 290.6 ± 12.6 b | root galling reduction (in words) ([1]; tomato greenhouse, abamectin seed coating alone): approximately two rating classes below the check | J2/50 ml soil [1, 6]: 20.3 ± 4.3ab | Plant dry weight(g) [1, 6]: 5.24 ± 0.35b g | Plant height(cm) [1, 6]: 27.33 ± 0.72cd cm | egg count/root [1, 6]: 346133 ± 39003 days | egg masses/root [1, 6]: 454.2 ± 62.7c | J2/50 ml soil [1, 7]: 7.2 ± 5.4ab | Plant dry weight(g) [1, 7]: 6.31 ± 0.21c g | Plant height(cm) [1, 7]: 26.17 ± 2.14bc cm | egg count/root [1, 7]: 205867 ± 66056bc | egg masses/root [1, 7]: 381.7 ± 120.3c | Root galling [1, 6]: 6.67 ± 0.21ef | Root galling [1, 7]: 5.00 ± 0.52c | fruit weight (g) [1, 6]: 5.19 ± 0.18bc g | fruit weight (g) [1, 7]: 6.00 ± 0.14c g | number of fruits/plant [1, 6]: 31.0 ± 4.6bcd | total fruit weight/plant (g) [1, 6]: 160.3 ± 22.8bc g | number of fruits/plant [1, 7]: 40.5 ± 1.5cde | total fruit weight/plant (g) [1, 7]: 243.3 ± 11.8 g·days | plant growth compared to the non-treated control plants (in words) ([2]; cucumber trial 1, 0.3 mg/seed rate of abamectin): significant increases in early plant growth as well as in plant dry weight and main vine length | plant growth and root galling (in words) ([2]; cucumber trial 1, low rate of abamectin): neither plant growth was improved nor root galling was significantly reduced | main vine length (cm) @ 8 weeks [2, 6]: 100.7 ± 8.8 ab cm | number egg masses/root [2, 6]: 108.2 ± 14.0 ab | plant dry weight (g) @ 8 weeks [2, 6]: 4.2 ± 0.4 a g | plant height (mm) @ 3 weeks [2, 6]: 70.8 ± 2.3 a mm | main vine length (cm) @ 8 weeks [2, 7]: 127.8 ± 11.9 cde cm | number egg masses/root [2, 7]: 85.8 ± 12.8 ab | plant dry weight (g) @ 8 weeks [2, 7]: 5.7 ± 0.4 bc g | plant height (mm) @ 3 weeks [2, 7]: 90.8 ± 7.1 bc mm | root galling @ 8 weeks [2, 6]: 6.3 ± 0.6 de | root galling @ 8 weeks [2, 7]: 5.8 ± 0.4 cde | J2/50 cc soil ([3]; tomato cv. Kirby, trial termination, mean ± SE, abamectin seed coated 0.3 mg a.i./seed, P. penetrans soil incorporated 1 × 10E5/g soil): 95 ± 15 b | plant top dry weight (g) [3, 8]: 31.3 ± 1.8 ab g | root gall rating (0-10) [3, 8]: 3.3 ± 0.3 ab | root galling (in words) ([3]; tomato, abamectin 0.3 mg a.i./seed, P. penetrans 1×10^5 endospores/g soil): reduced galling by approximately two rating classes | main vine length (cm) @ 8 weeks [4, 6]: 146.2 ± 9.8 c cm | number egg masses/root system @ 8 weeks [4, 6]: 80.8 ± 27.8 b | plant dry weight (g) @ 8 weeks [4, 6]: 6.4 ± 0.5 c g | plant height (mm) @ 3 weeks [4, 6]: 96.2 ± 6.4 bcd mm | root galling @ 8 weeks (scale 0-10) [4, 6]: 5.3 ± 0.2 abc | main vine length (cm) @ 8 weeks [4, 7]: 131.3 ± 6.2 bc cm | number egg masses/root system @ 8 weeks [4, 7]: 36.7 ± 4.0 a | plant dry weight (g) @ 8 weeks [4, 7]: 6.0 ± 0.3 bc g | plant height (mm) @ 3 weeks [4, 7]: 105.8 ± 5.3 cde mm | root galling @ 8 weeks (scale 0-10) [4, 7]: 5.0 ± 0.4 ab
